Earlier results as cited in patent US20230218659A1, “Selenium-Based Compositions and Therapeutic Methods” (Hess Pharmaceuticals, Inc, priority 2020, published 2023).

Details: 200 µg/day selenium with or without 400 IU/day vitamin E; 35,533 men aged 50 years or older; after 5.5 years

[Se] [selenium]
association between prostate cancer risk and supplementation: no association
